Ten compounds from patent US11957759B1, “Rapidly accelerated fibrosarcoma (RAF) degrading compounds and associated methods of use” (Arvinas Operations, Inc., priority 2022, dated 2024) can be followed below.

SMILES strings stand for the structures.

Holding throughout (assay type): cell-based
Assay [1] deals with T1, B-RAF V600E (Homo sapiens, UniProt P15056, V600E).
T1 construct: expressed in transfected cells; host or cells: T-Rex 293 cells (Invitrogen #R71007)
The assay is described as follows: Target protein degradation, assay A: T-Rex 293 cells, HA-B-RAF_V600E, 96 well format. The note with it: T-Rex 293 HA-B-RAF_V600E cells, 24 hours, Examples 1-82. The protocol:
A. T-Rex 293 Cells (96 well format)
T-Rex 293 cells were purchased from Invitrogen (#R71007), and stably transfected with a pcDNA4/TO_HA-B-RAF_V600E construct, using 400 ug Zeocin for selection. V600e cells are plated in ulbecco's Modified Eagle Medium (DMEM; Gibco #11965118) containing 10% fetal bovine serum (FBS; Gibco #16000044) and 1 ng/mL doxycycline (Selleckchem #4163) at a density of 5,000 cells/well in 50 μl on poly-D-lysine (PDL) coated, black clear bottom 96-well plates (Corning #354640) and incubated for 24 hours at 37° C. with 5% CO2. The following day 50 ul of tested compound was added at 2× concentration in DMEM with a final concentration ranging from 1 μM to 0.1 nM in 0.1% dimethylsulfoxide (DMSO), and incubated for 24 hours at 37° C. with 5% CO2. At the end of the experimental treatment, the media was flicked off and cells washed once with phosphate-buffered saline (PBS)++(PBS with CaCl and MgCl) and gently replacing with 200 μl PBS++ per well. The PBS++ was removed and 50 uL 4% paraformaldehyde (PFA; EMS #15710) in PBS++ was added, and incubate at room temperature for 15 minutes. Cells were washed once with PBS++ and 50 uL 0.1% Triton X-100 (Fisher #BP151-500) in PBS++ was added. Plate was incubate for 5 minutes at room temperature. Cells were was once with PBS++. Cells were blocked with 100 uL Licor blocking buffer (Licor #927-50000) for 1 hour at room temperature. Next, 50 uL of HA antibody (CST #3724) at 1:1000 in Licor blocking buffer was added, and the plate icubate overnight at 4° C. The plates were parafilmed to prevent evaporation. Plate was washed three times with 200 uL PBS++. Fifty microliters of HCS secondary antibody solution [1:1000 Hoechst (Invitrogen #H3570), 1:1000 phalloidin (Invitrogen #A22287) and 1:5000 Alexa fluor (Invitrogen #A11008)] was added and incubated for 1 hour. Plate was wash three times with 200 uL PBS++, and imaged on a high content reader (ImageXpress Micro XLS, Molecular Devices).
The concentration of an exemplary compound that leads to half maximal degradation (DC50) as well as the maximum degradation observed (Dmax, conventionally expressed as a percentage of control) is shown below in Table 2.

Assay [2] has as its target T1, B-RAF V600E. The assay is described as follows: Target protein degradation, assay C: T-Rex 293 cells, HA-BRAF_V600E, 384 well format. The note with it: T-Rex 293 HA-BRAF_V600E cells, 24 hours, Examples 83-269; for DC50: Assay C; for Dmax: T-REx-293, Assay C. The gist of the method:
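After 24 h exposure to an 11-point 1:3 series (300 nM–5 pM, 0.5% DMSO), fixed T-Rex 293 cells carrying HA-BRAF V600E (induced with 1 ng/mL doxycycline) were stained anti-HA and imaged. DC50 and Dmax were derived from BRAF intensity relative to control, and cytotoxicity from nuclear counts.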

The next assay deals with T2, B-RAF G466V (Homo sapiens, UniProt P15056, G466V).
T2 construct: expressed in transfected cells; host or cells: T-Rex 293 cells (Invitrogen #R71007)
The assay is described as follows: Target protein degradation, assay D: T-Rex 293 cells, HA-BRAF_G466V, 384 well format. Conditions: T-Rex 293 HA-BRAF_G466V cells, 24 hours, Examples 83-269; for DC50: Assay D; for Dmax: T-REx-293, Assay D. The procedure, abridged:
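Degradation measured by high-content imaging of anti-HA immunofluorescence in fixed T-Rex 293 cells carrying inducible HA-BRAF G466V (1 ng/mL doxycycline), after 24 h PROTAC exposure at 37 °C over 300 nM–5 pM (1:3, 11 points, 0.5% DMSO). Outputs DC50 and Dmax as % of control; nuclei counts against DMSO wells gauge toxicity.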

T1 sequence (P15056 whole entry V600E): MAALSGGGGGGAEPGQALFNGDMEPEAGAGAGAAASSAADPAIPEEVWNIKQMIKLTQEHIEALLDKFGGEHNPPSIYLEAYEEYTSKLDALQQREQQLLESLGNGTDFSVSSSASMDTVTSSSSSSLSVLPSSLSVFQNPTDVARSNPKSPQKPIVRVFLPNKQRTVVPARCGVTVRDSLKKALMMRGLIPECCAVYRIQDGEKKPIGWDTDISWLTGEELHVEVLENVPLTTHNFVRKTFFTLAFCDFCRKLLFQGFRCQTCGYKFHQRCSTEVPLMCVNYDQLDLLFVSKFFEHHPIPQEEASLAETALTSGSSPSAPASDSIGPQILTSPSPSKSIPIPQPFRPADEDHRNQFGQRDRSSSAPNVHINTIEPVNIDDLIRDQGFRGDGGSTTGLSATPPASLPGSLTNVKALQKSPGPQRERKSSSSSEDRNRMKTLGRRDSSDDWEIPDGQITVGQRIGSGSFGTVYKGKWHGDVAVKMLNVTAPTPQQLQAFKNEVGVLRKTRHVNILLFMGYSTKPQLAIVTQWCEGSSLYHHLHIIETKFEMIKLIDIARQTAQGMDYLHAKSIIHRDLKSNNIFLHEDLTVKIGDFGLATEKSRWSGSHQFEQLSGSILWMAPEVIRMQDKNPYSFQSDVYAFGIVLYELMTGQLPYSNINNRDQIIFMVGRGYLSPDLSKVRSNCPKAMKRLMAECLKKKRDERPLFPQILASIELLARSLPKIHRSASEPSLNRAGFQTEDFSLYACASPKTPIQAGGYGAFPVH
T2 sequence (P15056 whole entry G466V): as the sequence (P15056 whole entry V600E) above, with G466V, E600V counted along it

For `N#Cc1c(NS(=O)(=O)N2CC[C@@H](F)C2)ccc(F)c1Oc1ccc2ncn(-c3ccc(N4CCC(CN5CCC(c6ccc7c(c6)CN([C@H]6CCC(=O)NC6=O)C7=O)CC5)CC4)cc3)c(=O)c2c1` [Example 81, (3R)—N-(2-cyano-3-{[3-(4-{4-[(4-{2-[(3S)-2,6-dioxopiperidin-3-yl]-1-oxo-2,3-dihydro-1H-isoindol-5-yl}piperidin-1-yl)methyl]piperidin-1-yl}phenyl)-4-oxo-3,4-dihydroquinazolin-6-yl]oxy}-4-fluorophenyl)-3-fluoropyrrolidine-1-sulfonamide], on B-RAF V600E [1], the DC50 lay in the range of 50 to 500 nM and the Dmax fell in the range of 35 to 70%.
On to `N#Cc1c(NS(=O)(=O)N2CC[C@@H](F)C2)ccc(F)c1Oc1ccc2ncn(-c3ccc(C4CCN(CC5CN(c6ccc7c(c6Cl)CN([C@H]6CCC(=O)NC6=O)C7=O)C5)CC4)cc3)c(=O)c2c1` [Example 258, (3R)-N-(3-{[3-(4-{1-[(1-{4-chloro-2-[(3S)-2,6-dioxopiperidin-3-yl]-1-oxo-2,3-dihydro-1H-isoindol-5-yl}azetidin-3-yl)methyl]piperidin-4-yl}phenyl)-4-oxo-3,4-dihydroquinazolin-6-yl]oxy}-2-cyano-4-fluorophenyl)-3-fluoropyrrolidine-1-sulfonamide], for which, at B-RAF V600E [2], the DC50 was in the range of 50 to 500 nM and the Dmax was 35 to 70%. For the same compound, at B-RAF G466V, the DC50 fell in the range of 1 to 10 nM and the Dmax was 35 to 70%.
With `N#Cc1c(NS(=O)(=O)N2CC[C@@H](F)C2)ccc(F)c1Oc1ccc2ncn(-c3ccc(N4CCC(CN5CCC6(CCC(c7ccc8c(c7)CN([C@H]7CCC(=O)NC7=O)C8=O)CC6)CC5)CC4)cc3)c(=O)c2c1` [Example 262, (3R)-N-(2-cyano-3-{[3-(4-{4-[(9-{2-[(3S)-2,6-dioxopiperidin-3-yl]-1-oxo-2,3-dihydro-1H-isoindol-5-yl}-3-azaspiro[5.5]undecan-3-yl)methyl]piperidin-1-yl}phenyl)-4-oxo-3,4-dihydroquinazolin-6-yl]oxy}-4-fluorophenyl)-3-fluoropyrrolidine-1-sulfonamide], the DC50 on B-RAF V600E [2] was in the range of 5 to 50 nM; at B-RAF G466V it was 1 to 10 nM. Moreover, the Dmax on B-RAF V600E [2] and on B-RAF G466V was ≥ 70% in each case.
For `N#Cc1c(NS(=O)(=O)N2CC[C@@H](F)C2)ccc(F)c1Oc1ccc2ncn(-c3ccc(C4CCN(CC5CC6(CCN(c7ccc8c(c7)CN([C@H]7CCC(=O)NC7=O)C8=O)CC6)C5)C4)cc3)c(=O)c2c1` (stereo partly drawn) [Example 263, (3R)-N-(2-cyano-3-{[3-(4-{1-[(7-{2-[(3S)-2,6-dioxopiperidin-3-yl]-1-oxo-2,3-dihydro-1H-isoindol-5-yl}-7-azaspiro[3.5]nonan-2-yl)methyl]pyrrolidin-3-yl}phenyl)-4-oxo-3,4-dihydroquinazolin-6-yl]oxy}-4-fluorophenyl)-3-fluoropyrrolidine-1-sulfonamide], on B-RAF V600E [2], the DC50 lay within 50 to 500 nM and the Dmax is ≥ 70%. Besides, on B-RAF G466V, the DC50 was in the range of 1 to 10 nM and the Dmax is ≥ 70%.
On B-RAF V600E [2], `CCN(CC1CCN(c2ccc(-n3cnc4ccc(Oc5c(F)ccc(NS(=O)(=O)N6CC[C@@H](F)C6)c5C#N)cc4c3=O)cc2)CC1)[C@H]1C[C@@H](Oc2ccc3c(c2)CN([C@H]2CCC(=O)NC2=O)C3=O)C1` [Example 264, (3R)-N-{2-cyano-3-[(3-{4-[4-({ethyl[(1r,3r)-3-({2-[(3S)-2,6-dioxopiperidin-3-yl]-1-oxo-2,3-dihydro-1H-isoindol-5-yl}oxy)cyclobutyl]amino}methyl)piperidin-1-yl]phenyl}-4-oxo-3,4 dihydroquinazolin-6-yl)oxy]-4-fluorophenyl}-3-fluoropyrrolidine-1-sulfonamide] yielded a DC50 of 50 to 500 nM and a Dmax of 35 to 70%. At B-RAF G466V, this compound gave a DC50 of 1 to 10 nM and a Dmax of 35 to 70%.
With `N#Cc1c(NS(=O)(=O)N2CC[C@@H](F)C2)ccc(F)c1Oc1ccc2ncn(-c3ccc(N4CCN(CC5CCN(c6cc7c(c(OC(F)(F)F)c6)C(=O)N(C6CCC(=O)NC6=O)C7)CC5)CC4)cc3)c(=O)c2c1` (stereo partly drawn) [Example 265, (3R)-N-{2-cyano-3-[(3-{4-[4-({1-[2-(2,6-dioxopiperidin-3-yl)-1-oxo-7-(trifluoromethoxy)-2,3-dihydro-1H-isoindol-5-yl]piperidin-4-yl}methyl)piperazin-1-yl]phenyl}-4-oxo-3,4-dihydroquinazolin-6-yl)oxy]-4-fluorophenyl}-3-fluoropyrrolidine-1-sulfonamide], the DC50 lay in the range of 50 to 500 nM on B-RAF V600E [2] and 10 to 30 nM on B-RAF G466V. For the same compound, the Dmax at B-RAF V600E [2] and at B-RAF G466V was 35 to 70% each time.
At B-RAF V600E [2], `N#Cc1c(NS(=O)(=O)N2CC[C@@H](F)C2)ccc(F)c1Oc1ccc2ncn(-c3ccc(N4CCN(CC5CCN(c6cc7c(c(C(F)(F)F)c6)C(=O)N(C6CCC(=O)NC6=O)C7)CC5)CC4)cc3)c(=O)c2c1` (stereo partly drawn) [Example 266, (3R)-N-{2-cyano-3-[(3-{4-[4-({1-[2-(2,6-dioxopiperidin-3-yl)-1-oxo-7-(trifluoromethyl)-2,3-dihydro-1H-isoindol-5-yl]piperidin-4-yl}methyl)piperazin-1-yl]phenyl}-4-oxo-3,4-dihydroquinazolin-6-yl)oxy]-4-fluorophenyl}-3-fluoropyrrolidine-1-sulfonamide] showed a DC50 of 50 to 500 nM and a Dmax of 35 to 70%. The DC50 on B-RAF G466V is > 30 nM.
Regarding `COCCN(CC1CCN(c2ccc(-n3cnc4ccc(Oc5c(F)ccc(NS(=O)(=O)N6CC[C@@H](F)C6)c5C#N)cc4c3=O)cc2)CC1)[C@H]1C[C@@H](Oc2ccc3c(c2)CN([C@H]2CCC(=O)NC2=O)C3=O)C1` [Example 267, (3R)-N-[2-cyano-4-fluoro-3-({3-[4-(4-{[(2-methoxyethyl)[(1r,3r)-3-({2-[(3S)-2,6-dioxopiperidin-3-yl]-1-oxo-2,3-dihydro-1H-isoindol-5-yl}oxy)cyclobutyl]amino]methyl}piperidin-1-yl)phenyl]-4-oxo-3,4-dihydroquinazolin-6-yl}oxy)phenyl]-3-fluoropyrrolidine-1-sulfonamide], at B-RAF V600E [2], the DC50 fell in the range of 50 to 500 nM and the Dmax was in the range of 35 to 70%. At B-RAF G466V, this compound had a DC50 of 10 to 30 nM and a Dmax of 35 to 70%.
Regarding `CC(=O)N(CC1CCN(c2ccc(-n3cnc4ccc(Oc5c(F)ccc(NS(=O)(=O)N6CC[C@@H](F)C6)c5C#N)cc4c3=O)cc2)CC1)[C@H]1C[C@@H](Oc2ccc3c(c2)CN([C@H]2CCC(=O)NC2=O)C3=O)C1` [Example 268, N-{[1-(4-{6-[2-cyano-6-fluoro-3-({[(3R)-3-fluoropyrrolidin-1-yl]sulfonyl}amino)phenoxy]-4-oxo-3,4-dihydroquinazolin-3-yl}phenyl)piperidin-4-yl]methyl}-N-[(1r,3r)-3-({2-[(3S)-2,6-dioxopiperidin-3-yl]-1-oxo-2,3-dihydro-1H-isoindol-5-yl}oxy)cyclobutyl]acetamide], the half-maximal degradation concentration (DC50) at B-RAF V600E [2] is > 500 nM. In addition, on B-RAF G466V, the DC50 was in the range of 10 to 30 nM and the Dmax is ≤ 35%.
As for `CC(C)(C1CCN(c2ccc(-n3cnc4ccc(Oc5c(F)ccc(NS(=O)(=O)N6CC[C@@H](F)C6)c5C#N)cc4c3=O)cc2)CC1)N1CCN(c2ccc3c(c2)CN([C@H]2CCC(=O)NC2=O)C3=O)CC1` [Example 269, (3R)-N-(2-cyano-3-{[3-(4-{4-[2-(4-{2-[(3S)-2,6-dioxopiperidin-3-yl]-1-oxo-2,3-dihydro-1H-isoindol-5-yl}piperazin-1-yl)propan-2-yl]piperidin-1-yl}phenyl)-4-oxo-3,4-dihydroquinazolin-6-yl]oxy}-4-fluorophenyl)-3-fluoropyrrolidine-1-sulfonamide], at B-RAF V600E [2], the DC50 was 50 to 500 nM and the maximal degradation (Dmax) is 35 to 70%. On B-RAF G466V, the DC50 fell in the range of 10 to 30 nM and the Dmax was ≥ 70%.
